SMILES strings stand for the structures.

For the first assay, the system named is Rattus norvegicus. Put plainly: Effect of compound on PCA reaction in rats at a i.v. dose of 1 mg/kg 1 hr prior to antigen challenge. The format is functional. The settings on record: route intravenous.
Consider `N=C(N)c1ccc2oc(C(=O)N3CCN(C(=O)CO[C@H]4CCC[C@@H](OCC(=O)N5CCN(C(=O)c6cc7cc(C(=N)N)ccc7o6)CC5)CCC4)CC3)cc2c1`, for which at 1 mg/kg the inhibition in vivo was 51%.

The target of the next assay is T1, Tryptase (Homo sapiens, UniProt Q9BZJ3+Q15661+Q9NRR2). Put plainly: Compound was tested for inhibitory activity against tryptase; Not determined (value more than […]).
Conditions: not given
The format is protein assay.
With `O=C(CCCC(=O)N1CCNCC1)C(=O)N1CCN(C(=O)COc2ccc(OCC(=O)N3CCN(C(=O)C(=O)CCCC(=O)N4CCNCC4)CC3)cc2)CC1`, the Ki entry is recorded as “Value more than 1x10^4”.
For the compound `O=C(CCC(=O)N1CCNCC1)CC(=O)N1CCN(C(=O)COc2ccc(OCC(=O)N3CCN(C(=O)CC(=O)CCC(=O)N4CCNCC4)CC3)cc2)CC1`, the inhibition constant Ki entry is “Value more than 1x10^4”.

The target in the next assay is Prothrombin (Homo sapiens, UniProt P00734). Put plainly: Inhibition of thrombin.
Conditions: not given
Compound `N=C(N)c1ccc2oc(C(=O)N3CCN(C(=O)CCC(=O)N4CCN(C(=O)c5cc6cc(C(=N)N)ccc6o5)CC4)CC3)cc2c1` yielded a Ki of 51 µM.
`N=C(N)c1ccc2oc(C(=O)N3CCN(C(=O)COc4ccc(OCC(=O)Nc5ccc(-c6c[nH]cn6)cc5)cc4)CC3)cc2c1` gave a Ki of 5.3 µM.
Same read-out and setting: the value for `N=C(N)c1ccc2oc(C(=O)N3CCN(C(=O)CCCC(=O)N4CCN(C(=O)c5cc6cc(C(=N)N)ccc6o5)CC4)CC3)cc2c1` was 32 µM; that for `N=C(N)c1ccc2oc(C(=O)N3CCN(C(=O)CCCCC(=O)N4CCN(C(=O)c5cc6cc(C(=N)N)ccc6o5)CC4)CC3)cc2c1` was 23 µM; that for `N=C(N)c1ccc2oc(C(=O)N3CCN(C(=O)CC(=O)N4CCN(C(=O)c5cc6cc(C(=N)N)ccc6o5)CC4)CC3)cc2c1` was 82 µM.
The same measure, in the same setting: the value for `N=C(N)Nc1ccc2oc(C(=O)N3CCN(C(=O)COc4ccc(OCC(=O)N5CCN(C(=O)c6cc7cc(NC(=N)N)ccc7o6)CC5)cc4)CC3)cc2c1` was 24 µM; that for `N=C(N)c1ccc2oc(C(=O)N3CCN(C(=O)COc4ccccc4OCC(=O)N4CCN(C(=O)c5cc6cc(C(=N)N)ccc6o5)CC4)CC3)cc2c1` was 88 µM.
`N=C(N)N1CCc2sc(C(=O)N3CCN(C(=O)COc4ccc(OCC(=O)N5CCN(C(=O)c6cc7c(s6)CCN(C(=N)N)C7)CC5)cc4)CC3)cc2C1` yielded a Ki of 29 µM.
On the same count and under the same terms, the value for `N=C(N)c1ccc2sc(C(=O)N3CCN(C(=O)COc4ccc(OCC(=O)N5CCN(C(=O)c6cc7cc(C(=N)N)ccc7s6)CC5)cc4)CC3)cc2c1` was 22 µM; that for `N=C(N)c1ccc2oc(C(=O)N3CCN(C(=O)CCCCCCCC(=O)N4CCN(C(=O)c5cc6cc(C(=N)N)ccc6o5)CC4)CC3)cc2c1` was 230 µM; that for `N=C(N)c1ccc2oc(C(=O)N3CCN(C(=O)COc4ccc(OCC(=O)NCc5ccccc5)cc4)CC3)cc2c1` was 28 µM.
Same read-out and setting: then `N=C(N)c1ccc2oc(C(=O)N3CCN(C(=O)COc4ccc(OCC(=O)N5CCN(C(=O)c6cc7cc(C(=N)N)ccc7o6)CC5)cc4)CC3)cc2c1`, with 32 µM.
Still for that read-out and setting: then `N=C(N)c1ccc2oc(C(=O)N3CCN(C(=O)CO[C@H]4CCC[C@@H](OCC(=O)N5CCN(C(=O)c6cc7cc(C(=N)N)ccc7o6)CC5)CCC4)CC3)cc2c1`, with 15 µM.
In the case of `N=C(N)c1ccc2oc(C(=O)N3CCN(C(=O)CCCCCC(=O)N4CCN(C(=O)c5cc6cc(C(=N)N)ccc6o5)CC4)CC3)cc2c1`, the Ki was determined as 85 µM.

The next assay addresses T1, Tryptase. As to the kind of experiment: Inhibition of tryptase activity. It counts as protein assay.
Conditions: not given
Regarding `N=C(N)NCCCCC(=O)N1CCN(C(=O)COc2ccc(OCC(=O)N3CCN(C(=O)CCCCNC(=N)N)CC3)cc2)CC1`, the Ki worked out at 80000 nM.
The compound `N=C(N)c1ccc2oc(C(=O)N3CCN(C(=O)COc4ccc(OCC(=O)N5CCNCC5)cc4)CC3)cc2c1` yielded a Ki of 67 nM.
`N=C(N)c1ccc2oc(C(=O)N3CCN(C(=O)COc4ccccc4)CC3)cc2c1` yielded a Ki of 3000 nM.
Same read-out and setting: the value for `N=C(N)c1ccc2oc(C(=O)N3CCN(C(=O)COc4ccc(OCC(=O)N5CCCCC5)cc4)CC3)cc2c1` was 60 nM; that for `N=C(N)Nc1ccc2oc(C(=O)N3CCN(C(=O)COc4ccc(OCC(=O)N5CCN(C(=O)c6cc7cc(NC(=N)N)ccc7o6)CC5)cc4)CC3)cc2c1` was 1100 nM; that for `CN(C)C(=N)c1ccc2oc(C(=O)N3CCN(C(=O)COc4ccc(OCC(=O)N5CCN(C(=O)c6cc7cc(C(=N)N(C)C)ccc7o6)CC5)cc4)CC3)cc2c1` was 6600 nM.
Compound `N=C(N)c1ccc2oc(C(=O)N3CCN(C(=O)COc4ccccc4OCC(=O)N4CCN(C(=O)c5cc6cc(C(=N)N)ccc6o5)CC4)CC3)cc2c1` had a Ki of 1.1 nM.
Consider `N=C(N)c1ccc2oc(C(=O)N3CCN(C(=O)CCCCCCC(=O)N4CCN(C(=O)c5cc6cc(C(=N)N)ccc6o5)CC4)CC3)cc2c1`, for which the Ki came to 0.12 nM.
On the same count and under the same terms, then `N=C(N)N1CCc2sc(C(=O)N3CCN(C(=O)COc4ccc(OCC(=O)N5CCN(C(=O)c6cc7c(s6)CCN(C(=N)N)C7)CC5)cc4)CC3)cc2C1`, with 0.046 nM; and `N=C(N)c1ccc2sc(C(=O)N3CCN(C(=O)COc4ccc(OCC(=O)N5CCN(C(=O)c6cc7cc(C(=N)N)ccc7s6)CC5)cc4)CC3)cc2c1`, with 0.028 nM.
The compound `N=C(N)NCCCCCCC(=O)N1CCN(C(=O)COc2ccc(OCC(=O)N3CCN(C(=O)CCCCCCNC(=N)N)CC3)cc2)CC1` returned a Ki of 13000 nM.
The same measure, in the same setting: then `O=C(COc1ccc(OCC(=O)N2CCN(C(=O)CC(=O)N3CCNCC3)CC2)cc1)N1CCN(C(=O)CC(=O)N2CCNCC2)CC1`, with 13000 nM.
On the same count and under the same terms, the value for `N=C(N)NCCCCCC(=O)N1CCN(C(=O)COc2ccc(OCC(=O)N3CCN(C(=O)CCCCCNC(=N)N)CC3)cc2)CC1` was 23000 nM; that for `N=C(N)c1ccc2oc(C(=O)N3CCN(C(=O)CCCCCCCC(=O)N4CCN(C(=O)c5cc6cc(C(=N)N)ccc6o5)CC4)CC3)cc2c1` was 0.019 nM; that for `O=C(COc1ccc(OCC(=O)N2CCN(C(=O)c3cc4c(s3)CCNC4)CC2)cc1)N1CCN(C(=O)c2cc3c(s2)CCNC3)CC1` was 970 nM.
The same measure, in the same setting: then `N=C(N)c1ccc2oc(C(=O)N3CCN(C(=O)COc4ccc(OCC(=O)N5CCN(C(=O)c6cc7cc(C(=N)N)ccc7o6)CC5)cc4)CC3)cc2c1`, with 0.057 nM.
In turn, `N=C(N)c1ccc2oc(C(=O)N3CCN(C(=O)N4CCN(C(=O)c5cc6cc(C(=N)N)ccc6o5)CC4)CC3)cc2c1` came in with a Ki of 460 nM.
With `N=C(N)c1ccc2oc(C(=O)N3CCN(C(=O)CO[C@H]4CCC[C@@H](OCC(=O)N5CCN(C(=O)c6cc7cc(C(=N)N)ccc7o6)CC5)CCC4)CC3)cc2c1`, the Ki came out at 0.029 nM.
Consider `N=C(NCc1ccccc1)c1ccc2oc(C(=O)N3CCN(C(=O)COc4ccc(OCC(=O)N5CCN(C(=O)c6cc7cc(C(=N)NCc8ccccc8)ccc7o6)CC5)cc4)CC3)cc2c1`, for which the Ki worked out at 1100 nM.
With `CCOC(=O)COc1ccc(OCC(=O)N2CCN(C(=O)c3cc4cc(C(=N)N)ccc4o3)CC2)cc1`, the Ki is 210 nM.

Molecular target in the next assay: not listed separately
Put plainly: Compound was tested for inhibitory activity against tryptase. Further details: species or system Homo sapiens.
Conditions: not given
`N=C(N)c1ccc2oc(C(=O)N3CCN(C(=O)CCC(=O)N4CCN(C(=O)c5cc6cc(C(=N)N)ccc6o5)CC4)CC3)cc2c1`: the Ki was determined as 15 nM.
Same read-out and setting: then `N=C(N)c1ccc2oc(C(=O)N3CCN(C(=O)COc4ccc(OCC(=O)Nc5ccc(-c6c[nH]cn6)cc5)cc4)CC3)cc2c1`, with 6.8 nM.
Compound `N=C(N)c1ccc2oc(C(=O)N3CCN(C(=O)CCCC(=O)N4CCN(C(=O)c5cc6cc(C(=N)N)ccc6o5)CC4)CC3)cc2c1` yielded an inhibition constant (Ki) of 8.8 nM.
The same measure, in the same setting: the value for `N=C(N)c1ccc2oc(C(=O)N3CCN(C(=O)CCCCC(=O)N4CCN(C(=O)c5cc6cc(C(=N)N)ccc6o5)CC4)CC3)cc2c1` was 0.86 nM; that for `N=C(N)c1ccc2oc(C(=O)N3CCN(C(=O)CC(=O)N4CCN(C(=O)c5cc6cc(C(=N)N)ccc6o5)CC4)CC3)cc2c1` was 650 nM.
With `N=C(N)c1ccc2oc(C(=O)N3CCN(C(=O)COc4ccc(OCC(=O)NCc5ccccc5)cc4)CC3)cc2c1`, the Ki was 37 nM.
Still for that read-out and setting: then `N=C(N)c1ccc2oc(C(=O)N3CCN(C(=O)CCCCCC(=O)N4CCN(C(=O)c5cc6cc(C(=N)N)ccc6o5)CC4)CC3)cc2c1`, with 1.2 nM.

The record behind these values is ChEMBL document CHEMBL1131890, “Syntheses and evaluation of amidinobenzofuran derivatives as tryptase inhibitors” (Bioorg Med Chem Lett, 1999).
